Reference: publication PMC11267380, “USP25 Elevates SHLD2‐Mediated DNA Double‐Strand Break Repair and Regulates Chemoresponse in Cancer” (Advanced Science, 2024)

Experiments:
[1] = system: RKO cells; assay: CCK8 survival assay, control, USP25 knockdown and SHLD2-depleted RKO cells; assay type: cell-based; details: 5-Fu (0, 0.1, 0.5, 1, 3 µM) or cisplatin (0, 0.1, 0.5, 1, 2, 5 µM)
Method: For long‐term proliferation, cells were seeded in triplicate in each well of 96‐well plates at a density of 1000 cells per well. After 24 h of culture, the cells were treated with the indicated doses of regents or peptides and incubated at 37 °C for 72 h. Subsequently, the medium was changed to a fresh medium containing cell counting kit‐8 solution (Dojindo, CK04), and the cells were placed in the incubator for an additional 1–2 h. The absorbance was measured at 450 nm using the SpectraMax M5 reader (Molecular Devices).
(§1) a) HEK293T cells stably expressing control or USP25 shRNA were untreated and treaded with etopside at the indicated time point. Cells were lysed and lysates was performed with the indicated antibodies. b-c) Representative foci images and quantification of RPA32 (b) and RAD51 (c) were obtained in U2OS cells stably expressing control or USP25 shRNA with or without IR treatment (2Gy). n>80 in each group. d) USP25 was knocked down in ER-AsiSI U2OS cells by shRNA, and cell lysates were analyzed using the indicated antibodies. e) Schematic representation of Taqman qPCR primer design for measurement of DSB% at AsiSI sites located on chromosome1(Chr.1). The primer pairs of DNA resection are across BamHI restriction sites are marked by red arrows. ER-AsiSI U2OS cells stably expressing control and USP25 shRNA were treated with 300 nM 4- hydroxytamoxifen (4-OHT) for 4 h or mock treated and genomic DNA was then extracted and digested with BamHI overnight. The percentages of ssDNA at various distances (364nt, 1754nt and 3564nt) were measured by qPCR. f-h) Control and USP25 knockdown RKO cells transfected short interfering RNAs (siRNA) against SHLD2 were subjected to survival assays for CCK8 assay in response to IR (0, 1,1.5,2,2.5,3Gy), 5-Fu (0, 0.1,0.5,1,3µM) or cisplatin(0, 0.1,0.5,1,2,5µM). Statistical analysis was performed using two-way ANOVA followed by a Turkey’s multiple comparison test (b,c,e,f,g,h) .

[2] = system: RKO and SW620 cells; assay: CCK8 survival assay, USP25 knockdown USP25-high colon cancer cells; assay type: cell-based; details: RKO: cisplatin (0, 0.5, 1, 3 µM), 5-Fu (0, 0.1, 0.5, 1, 3 µM), SW620: 5-Fu (0, 0.1, 0.5, 1, 3 µM), 72 h
Method: For long-term proliferation, cells were seeded in triplicate in each well of 96-well plates at a density of 1000 cells per well. After 24 h of culture, the cells were treated with the indicated doses of regents or peptides and incubated at 37 °C for 72 h. Subsequently, the medium was changed to a fresh medium containing cell counting kit-8 solution (Dojindo, CK04), and the cells were placed in the incubator for an additional 1-2 h. […] a) The mRNA expression levels of TRIM25, HECTD3, NEDD4L and WWP2 in human normal colon tissue samples (n=41) and colorectal adenocarcinoma tissue samples (n=286 COAD patients) from the Ualcan database were analyzed. b) The protein expression levels of USP25 were measured in HEK293T cells that stably expressed TRIM25 shRNA. c) NHEJ repair capacity of control or TRIM25 knockdown cells were subjected using a reporter assay. d-g) Immunoblot of USP25 in the RKO cells stably expressing control and USP25 shRNA. […] Statistical analysis was performed using t-test (a) or one-way ANOVA followed by a Turkey's multiple comparison test (c) or two-way ANOVA followed by a Turkey's multiple comparison test ([…]) .

[3] = system: RPA32 phosphorylation of Ser4/Ser8 in HEK293T cells; assay: RPA32 phosphorylation immunoblot after etoposide, USP25-depleted cells; assay type: cell-based; details: HEK293T stably expressing control or USP25 shRNA, Figure S2a
Method: as §1, with “Statistical analysis was performed using two-way ANOVA followed by a Turkey’s multiple comparison test (b,c,e,f,g,h) .” left out

[4] = molecular target: T1, USP25 (Homo sapiens, UniProt Q9UHP3); assay: Surface Plasmon Resonance (SPR) analysis of peptide binding; details: result in words; for binding affinity for USP25: Figure 7a, Figure S7a-c
T1 sequence (Q9UHP3 1-1055): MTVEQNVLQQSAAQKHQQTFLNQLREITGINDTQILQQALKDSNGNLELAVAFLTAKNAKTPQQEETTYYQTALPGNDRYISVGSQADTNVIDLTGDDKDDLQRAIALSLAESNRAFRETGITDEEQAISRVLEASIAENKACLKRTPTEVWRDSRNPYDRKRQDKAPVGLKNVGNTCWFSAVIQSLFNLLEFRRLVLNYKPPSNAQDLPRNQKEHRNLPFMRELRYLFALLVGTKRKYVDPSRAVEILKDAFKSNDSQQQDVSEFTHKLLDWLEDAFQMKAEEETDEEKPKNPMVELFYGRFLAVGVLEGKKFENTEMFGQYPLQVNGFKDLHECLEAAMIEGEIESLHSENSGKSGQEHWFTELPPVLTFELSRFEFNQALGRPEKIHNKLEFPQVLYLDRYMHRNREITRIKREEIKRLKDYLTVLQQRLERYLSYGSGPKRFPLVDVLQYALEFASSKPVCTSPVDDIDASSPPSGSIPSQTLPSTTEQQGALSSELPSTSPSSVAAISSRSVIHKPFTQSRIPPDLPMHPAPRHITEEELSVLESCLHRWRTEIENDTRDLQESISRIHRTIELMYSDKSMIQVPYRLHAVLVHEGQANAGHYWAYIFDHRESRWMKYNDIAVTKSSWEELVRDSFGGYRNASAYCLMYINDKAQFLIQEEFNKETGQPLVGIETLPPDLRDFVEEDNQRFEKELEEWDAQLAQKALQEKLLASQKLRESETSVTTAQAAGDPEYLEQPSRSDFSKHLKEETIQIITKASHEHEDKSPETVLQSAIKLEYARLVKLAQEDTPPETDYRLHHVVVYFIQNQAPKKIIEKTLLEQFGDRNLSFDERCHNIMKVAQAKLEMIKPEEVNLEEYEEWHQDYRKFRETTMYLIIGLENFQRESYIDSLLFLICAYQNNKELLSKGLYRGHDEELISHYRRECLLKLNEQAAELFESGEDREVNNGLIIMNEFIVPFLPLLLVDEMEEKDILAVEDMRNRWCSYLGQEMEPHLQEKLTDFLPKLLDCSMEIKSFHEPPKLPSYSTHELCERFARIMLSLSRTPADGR
Method: Figure 7 Disturbing the USP25 and SHLD2 interaction counteracts colon cancer progression. a) The kinetic interaction of SH‐4 and USP25 was assessed using surface plasmon resonance (SPR) analyses. b) Co‐immunoprecipitation assays (Co‐IP) were performed to detect the interaction between USP25 and SHLD2 in HEK293T cells treated with indicated peptides. c) NHEJ repair capacity of HEK293T cells treated with indicated peptides was subjected using a reporter assay. d) Representative micrographs of GFP‐SHLD2 foci and e) quantification were shown following irradiation and indicated peptide treatment. Cells were stained with anti‐GFP antibodies. f) The highest‐scoring Dock model of the SH‐4 and USP25 complex is shown. Left: the surface of SH‐4 (green) and USP25 complex. Right: the 3D structure of SH‐4 (green) and USP25 complex. g) The effect of indicated peptides(20 µM) in combination with 5‐Fu (0, 0.1, 0.5, 1, 3 µM) on the chemosensitivity of SW620 cells was determined. h‐l) Xenograft tumor formation by SW620 cells in mice that were untreated or treated with PSH‐4 and 5‐Fu or each treatment alone was analyzed. A h) schematic model, i) representative tumor images, j) tumor volume over time, k) tumor weight, and l) HE or Ki67 staining assay were presented (n = 5 animals). m) A schematic model for generating patient‐derived tumor xenografts of colorectal adenocarcinoma (COAD) was provided. n) Western blots showing USP25 levels in COAD patient tumors (patients 1–3) were presented. o) Representative immunohistochemistry (IHC) micrographs showing USP25 expression in COAD patient‐derived tumors were provided. p–s) The PDX xenograft in mice that were untreated or treated with PSH‐4([…] ) and 5‐Fu ([…] ) or each treatment alone were analyzed. Representative p) tumor images, q) tumor volume over time, r) tumor weight, and s) HE or Ki67 staining assay were presented (n = 6 animals). Statistical analysis was performed using one‐way ANOVA followed by a Turkey's multiple comparison test (c,e,k,r) or two‐way ANOVA followed by a Turkey's multiple comparison test (g,j,q). TEXT PRINTED IN THE PICTURE: (a) SH-4: KD (M) 2.082*10^-5; kd (1/s) 0.00484 DOUBTS OF THE COPYIST ABOUT THIS PICTURE: SH-4, KD (M): the digits 2.082 and the exponent -5 are in small print, the 8 could be a 6 or a 3 / SH-4, kd (1/s): 0.00484 is in small print, the 8 could be a 6 or a 3
The amino acid (aa) sequences of peptides covering the SHLD2-binding region from USP25 are shown. The kinetic interaction of peptides and USP25 was determined by surface plasmon resonance (SPR) analyses.

[5] = system: NHEJ; assay: NHEJ reporter assay, cells treated with AZ1; assay type: cell-based; details: compared with USP25 depletion (decreased NHEJ); Figure S1h
[6] = system: HR; assay: HR reporter assay, cells treated with AZ1; assay type: cell-based; details: compared with USP25 depletion (increased HR); Figure S1i
[7] = molecular target: T2, USP25 (as used for SPR) (UniProt Q9UHP3 1-1055); assay: SPR
T2 chain: T1 sequence (Q9UHP3 1-1055)

[8] = molecular target: T2, USP25 (as used for SPR); assay: SPR

Molecule: N.N.[Cl][Pt][Cl] [cisplatin]
- sensitization by USP25 knockdown ([1]; Figure S2f-h): sensitized cells to IR, 5‐Fu, and cisplatin treatment
- sensitization by USP25 knockdown in SHLD2-depleted cells ([1]; SHLD2 siRNA): didn't further lead cells to sensitize to these treatments
- sensitization by USP25 knockdown, USP25-high cell lines [2]: sensitized the cells to IR, cisplatin, and 5‐Fu treatment

Molecule: COc1cc([C@@H]2c3cc4c(cc3[C@@H](O[C@@H]3O[C@@H]5CO[C@@H](C)O[C@H]5[C@H](O)[C@H]3O)[C@H]3COC(=O)[C@H]23)OCO4)cc(OC)c1O [etoposide]
- RPA32 phosphorylation of Ser4/Ser8 on USP25 depletion [3]: promoted RPA32 phosphorylation of Ser4/Ser8

Molecule: KNFNTNLFQLGHKCA [SH‐4, peptide designed based on the structure of the N‐terminus (aa 1–200) of SHLD2]
- binding affinity for USP25 [4]: showed the binding affinity for USP25
- relative binding affinity for USP25 among SH-1 to SH-4 [4]: higher affinity

Molecule: MSVADPWKKIQLLYS [SH‐1, peptide designed based on the structure of the N‐terminus (aa 1–200) of SHLD2]
- binding affinity for USP25 [4]: showed the binding affinity for USP25
- relative binding affinity for USP25 among SH-1 to SH-4 [4]: higher affinity

Molecule: OCCNCc1cc(Br)ccc1OCc1ccc(F)c(C(F)(F)F)c1 [AZ1]
- NHEJ after USP25 inhibition [5]: led to similar results as depletion of USP25 in cells
- HR after USP25 inhibition [6]: led to similar results as depletion of USP25 in cells

Molecule: EKQHKNLENYKVPESI [SH‐2, peptide designed based on the structure of the N‐terminus (aa 1–200) of SHLD2]
- binding affinity for USP25 [4]: showed the binding affinity for USP25

Molecule: FTEEEKYQKLLSENK [SH‐3, peptide designed based on the structure of the N‐terminus (aa 1–200) of SHLD2]
- binding affinity for USP25 [4]: showed the binding affinity for USP25

Molecule: KNFNTNLFQLGHKCA [SH-4 peptide]
- koff [7]: 0.00484 s⁻¹
- Kd [8]: 20.8 µM
